From paper PMC5052704, “Transition metal ion FRET uncovers K^+ regulation of a neurotransmitter/sodium symporter” (Nature Communications, 2016)

Biological target: T1, LeuT (leucine transporter) (Aquifex aeolicus, UniProt O67854, R30A/A313H/A317H/K398C)
T1 construct: gene snf; full-length LeuT, C-terminal octahistidine tag with thrombin site, pET16b derivative, expressed in E. coli C41, purified in DDM; tmFRET variants labelled with fluorescein-5-maleimide
Test: scintillation proximity assay, Na+-dependent [3H]leucine binding
Conditions: 5 μM [3H]leucine; pH 7.5; DDM; fluorescein-labelled at K398C; labelled compound

Q: With `CC(C)C[C@H](N)C(=O)O` [leucine] as the compound, how does the “scintillation proximity assay, Na+-dependent [3H]leucine binding” value read?
A: The value was “Na^+ dependence of [^3H]leucine binding to R30A^tmFRET”.
